Measured values from patent US20070270392A1, “Use of a Cyclopentenone Prostaglandin for Delaying the Onset and/or Preventing the Continuation of Labour” (Imperial College Innovations Limited, priority 2003, published 2007).

Tests used:
Format in all cases: cell-based, human
NF-κB [1] = assay: Western immunoblot of NF-κB activation (p65, p50, IκB) in myometrial cells; design: Accumulation of phosphorylated IκBα: dose or concentration left out as unconfirmed
Protocol: Western immunoblots of nuclear or cytosolic protein extracts from (A) myometrial cells, (B) L− amnion cells, and (C) L+amnion cells treated with 15dPGJ2 or vehicle for 2 h+/−IL-1, stimulation (15 min). Blots probed with antibodies against p65, p50 or IκBα.
Western immunoblot of nuclear or cytosolic protein extracts from myometrial cells treated with PGA1 or vehicle for 2 h followed by IL-1β stimulation (15 min). Blots probed with antibodies against p65 or IκBa.
Analysis of nuclear protein extracts from myometrial cells treated with PGE2 or vehicle for 2 h+/−TNFα or IL-1b stimulation (15 min). (A) EMSA using consensus κB probe. (B) Western immunoblot probing for nuclear p65.
Western immunoblots of cytosolic extracts from myometrial cells (A) treated with 15dPGJ2 for 2 h+/−IL1b for 15 min; probed for IKK, and (B) treated with […] 15dPGJ2, […] MG132 or vehicle for 2 h, +/−IL-1β for 15 min; probed for IκBα.
(§1) Myometrial tissue was collected at term from the upper margin of uterine incision at the time of lower segment caesarean section either prior to the onset of labour (L−) or […] (L+). L+ samples were collected by Dr Mark Johnson and Dr S Soorrana at Chelsea & Westminster Hospital. Myometrial tissue was dissected, rinsed in PBS, and digested in serum-free DMEM containing 15 mg/ml collagenase 1A (Sigma), 15 mg/ml collagenase X, and 50 mg/ml bovine serum albumin for 45 min at 37° C. The cell suspension was filtered through a cell strainer, centrifuged at 400 g for 5 min, and the pellet re-suspended and plated out in DMEM, 10% FCS (Helena BioScience), 1% L-glutamine, 1% penicillin-streptomycin. Cells were used between passage numbers 1-4.
Nuclear and cytosolic protein extracts were obtained from cultured amnion cells as described by Schreiber et al (1989). For nuclear/cytosolic fractionation, confluent cell monolayers were scraped and lysed using a buffer containing 10 mM HEPES, 10 mM KCl, 0.1 mM EDTA, 0.1 mM EGTA, 2 mM DTT, 1% (v/v) NP-40 and complete protease inhibitor tablets (CPIs, Roche), diluted to manufacturer's instructions. Cell lysates were incubated on ice for 10 min and NP-40 added to a final concentration of 1% (v/v). Lysates were vortexed for 10 secs and centrifuged for 30 secs at 4° C., 12000 g. The supernatants were retained as the cytosolic protein extracts. The pellets were resuspended in buffer containing 10 mM HEPES, 10 mM KCl, 0.1 mM EDTA, 0.1 mM EGTA, 2 mM DTT, 400 mM NaCl, 1% NP-40 (v/v) and CPIs. Samples were shaken vigorously for 15 min in an ice bath. The nuclear protein extracts were obtained in the supernatant following a 5 min centrifugation at 4° C., 12000 g.
Protein samples (20-70 μg) were mixed with Laemmli sample buffer (1:1) containing β-mercaptoethanol (5%), and boiled for 5 min. Proteins were then separated by SDS-PAGE (12-14% gels) and transferred onto PVDF membrane (Amersham Pharmacia Biotech). The membranes were blocked overnight in 5% non-fat milk prepared in PBS-T buffer, at 4° C. The blots were incubated with the primary antibody in 1% non-fat milk in PBS-T buffer for 1 h, and washed three times (10 min each) in PBS-T with vigorous shaking. The blots were then incubated with HRP-conjugated secondary antibody (diluted 1:2000 in 1% non-fat milk in PBS-T buffer) for 1 h and washed three times (10 min each) in PBS-T. Signal detection was achieved using enhanced chemi-luminescence (ECL plus system, Amersham Pharmacia Biotech) according to manufacturer's instructions.
30-50 μg protein extracts were subjected to SDS-PAGE and Western immuno-blotting. Secondary antibodies were IgG-HRP and ECL Plus detection kit (Amersham Pharmacia Biotech, Amersham Place, Little Chalfont, Bucks, HP7 9NA) was used for visualisation.

NF-κB [2] = assay: NF-κB-dependent luciferase reporter (κB.BG.Luc) in amnion cells; conditions: L− and L+ amnion cells, treated 2 h, IL-1β 1 ng/ml 6 h
Protocol: . Values are normalised for b-gal reporter activity.
Placentae were obtained from patients at term either at elective Caesarean section prior to labour (L−) or following spontaneous labour onset and vaginal delivery (L+). Amnion cells were prepared as described in Bennett et al., (1989). Briefly, the amnion was separated from the placenta, washed 3× in PBS, cut into strips, and incubated in 0.51 mM EDTA in PBS for 15 min. The strips were washed in PBS 2× and digested with 2.5 mg/ml dispase in serum-free DMEM for 35 min at 37° C. The amnion was then shaken vigorously in DMEM, 10% FCS to dissociate the cells, the remaining strips discarded, and the cell suspension pelleted at 175 g for 10 min and cultured in DMEM, 10% FCS (Sigma), 1% L-glutamine, 1% penicillin-streptomycin.
pGL3.6 κB.BG.luc was the reporter construct used to assess NF-κB-mediated transcription, while the mutant pGL3.6 κBmut.luc and empty pGL3.BG.luc were used as controls (Schwarzer et al., 1998).
pGL3.6 κB.BG.luc: a NF-κB-dependent reporter construct with 6 copies of the NF-κB binding site. It contains two tandem repeats of the sequence 5′-GGG GAC TTT C CC TGGGGACTTTCCCTGGGGACTTTCCC-3′, which contains three copies of the decameric NF-κB binding site (underlined) upstream of a minimal β-globin promoter driving a luciferase gene. […]

NF-κB [3] = assay: NF-κB-dependent luciferase reporter (κB.BG.Luc) in myometrial cells; conditions: for IL-1-induced NF-κB transcriptional activity: treated 2 h, IL-1β 1 ng/ml 6 h
Protocol: Myometrial cells were transiently transfected with the NFκB-dependent reporter construct κB.BG.Luc, treated with 15dPGJ2 or vehicle for 2 h, +/−IL-1β(1 ng/ml) for 6 h. […] Values are normalised for b-gal reporter activity. (NS=nonstimulated).
Myometrial cells were transfected with […] κB.BG.Luc reporter and 200 ng PPAR-γ expression vector and treated with 15d-PGJ2 for 2 h followed by IL-1β (1 ng/ml) for 6 h. Values are normalised for β-galactosidase reporter activity. (NS=nonstimulated).
as §1
pGL3.6 κB.BG.luc: a NF-κB-dependent reporter construct with 6 copies of the NF-κB binding site.
Cells were co-transfected with the renilla vector pRL-CMV or a β-galactosidase vector pCH110 as internal controls for transfection efficiencies.

Row | SMILES | IL-1β-induced IκBα and IκBβ degradation (NF-κB [1]) | IL-1β-induced p50 phosphorylation (NF-κB [1]) | IL-1β-induced p65 nuclear translocation (NF-κB [1]) | Accumulation of phosphorylated IκBα (NF-κB [1]; 2 h, IL-1β 15 min) | IκBα phosphorylation (NF-κB [1]; cytosolic extracts) | IL-1-induced NF-κB transcriptional activity (NF-κB [2]) | Effect of PPARγ overexpression on 15d-PGJ2 inhibition of NF-κB transcriptional activity (NF-κB [3]; 200 ng PPAR-γ expression vector) | IL-1-induced NF-κB transcriptional activity (NF-κB [3]) | IL-1β-induced IκBα degradation (NF-κB [1])
1 | CCCCCC=CC=C1C(=O)C=C[C@@H]1CC=CCCCC(=O)O [15d-PGJ2, 15-deoxy-Δ^12,14prostaglandin J2] | inhibition | inhibited | inhibited | not detected | inhibits | inhibited | did not promote | inhibited | –
2 | CCCCC[C@H](O)/C=C/[C@H]1C=CC(=O)[C@@H]1CCCCCCC(=O)O [PGA1, prostaglandin A1] | – | – | inhibited | – | – | inhibited | – | reduced to basal levels | inhibited
